Experimental data as given in patent publication US8933122B2, “Use of cationic surfactants as sporicidal agents” (Laboratorios Miret, S.A., priority 2008, dated 2015).

System: endospores from Clostridium sporogenes ATCC 7955
Experiment: Sporicidal activity, quantitative suspension test EN 13704:2002 (Example 5)
Assay type: cell-based
Settings: 60 minutes contact, 20° C.; for Test of LAE sporicidal activity (Na), surviving spores count: water as interfering substance, N 1.3 × 10^6 cfu/mL
Procedure: The determination of the sporicidal activity of LAE has been carried out according to the European standard EN 13704:2002 Chemical disinfectant—Quantitative suspension test for the evaluation of sporicidal activity of chemical disinfectants used in food, industrial, domestic and institutional areas—Test method and requirements”.
A test suspension containing endospores from Clostridium sporogenes ATCC 7955 was prepared from a culture grown on a nutrient agar, to which additional sporulation enhancement ingredients were added. Plates were harvested with sterile water and endospores were purified by repeated centrifugations and resuspensions in water.
Neutralizer. The neutralizer mixture consisted of 30 g/L polysorbate 80 in water. The solution was intended to neutralize any chemicals so that these would not affect subsequent growth of the bacteria.
The sporicidal activity of a given product is defined by its capacity to reduce at least by 10^3 the amount of Clostridium sporogenes bacterial spores in suspension, in the conditions established in the method.
The product was in contact with a suspension of bacterial spores during an established period of time of 60 minutes. An interfering substance can be added to the suspension, in this case water. Next, the effect of the product is neutralized by adding a neutralizer previously chosen, preceding to the surviving spores count.
• 1. Spore suspension obtained from a spored-form culture of Clostridium sporogenes. • 2. Count of the spore suspension of Clostridium sporogenes. • 3. The possible toxic effect of the neutralizer on the spores in the absence of the product is valued. • 4. […] Results: Results are expressed as the reduction of viability of the spore suspension in regards to: […]
Sporicidal activity is calculated following the criteria of the Standard EN 13704: 2002 R=N×0.1/Na N is cfu/mL of the spore suspension. […] The calculated reduction (R) of a solution of: • 13 μg/mL of LAE is R<10^3 cfu/mL • 26 μg/mL of LAE is R<10^3 cfu/mL • 51 μg/mL of LAE is R>10^3 cfu/mL • 64 μg/mL of LAE is R>10^3 cfu/mL

Question: Which “concentration displaying sporicidal activity (reduction equal or above 10^3)” value (EN 13704:2002) does the source give for CCCCCCCCCCCC(=O)N[C@@H](CCCN=C(N)N)C(=O)OCC.Cl [LAE, ethyl ester of the lauramide of the arginine monohydrochloride] here?
Answer: The value was no less than 51 μg/mL.

Question: What about the “Test of LAE sporicidal activity (Na), surviving spores count” value (LAE 13 μg/mL) of the same molecule?
Answer: The value was 3.3 × 10^3 cfu/mL.

Question: What about the “Test of LAE sporicidal activity (Na), surviving spores count” value (LAE 26 μg/mL) of the same molecule?
Answer: Its value is 2.3 × 10^3 cfu/mL.
